The test system of test [1] is Apomorphine-induced emesis. Description: Apomorphine-induced emesis in the dog. Particulars: for APOMORPHINE-INDUCED VOMITING IN THE DOG % Protected animals: 1 mg/kg i.v.
The test system of another test is CuSO4-induced emesis. Description: CuSO4-induced emesis in the dog. It is filed as in vivo. As to conditions: for C4 SO4 - INDUCED VOMITING No EMETIC EPISODES IN THE DOG (% Inh.): 1 mg/kg i.v. The text has this:
(Kayashima, N., Tanaka, M., Iwasaki, M. & Hayama, T. Japan J. Pharmacol. (1978)28: 775-781).

The test system of test [2] is Cis-platinum induced emesis. The test is described as follows: Cis-platinum induced emesis in the dog. It is filed as in vivo. The text has this: (Gylys, J. A., Dora, K. M. & Buyniski J. P. Res. Comm. Chem. Pathol. Pharmacol. (1979)23: 61-68).
A further test concerns gastric emptying. The test is described as follows: Stomach emptying (gastric emptying of glass beads) in the rat. It is filed as in vivo. Also noted: unit not given here. An excerpt:
(5) Stomach emptying in the rat, administering compounds by oral route. (Jacoby, H. I., and Brodie, D. A. Gastroenterol. 52, 676-684, 1967).
All of them show a good prokinetic activity in the gastric emptying of glass beads in the rat.

Test [3] addresses T1, 5HT3 receptors located in vagal afferent fibres (Rattus norvegicus, UniProt P35563).
T1 construct: 5HT3 receptors located in vagal afferent fibres; from tissue; host or cells: vagal afferent fibres of the anaesthetized rat (in vivo)
T1 sequence (P35563 24-483): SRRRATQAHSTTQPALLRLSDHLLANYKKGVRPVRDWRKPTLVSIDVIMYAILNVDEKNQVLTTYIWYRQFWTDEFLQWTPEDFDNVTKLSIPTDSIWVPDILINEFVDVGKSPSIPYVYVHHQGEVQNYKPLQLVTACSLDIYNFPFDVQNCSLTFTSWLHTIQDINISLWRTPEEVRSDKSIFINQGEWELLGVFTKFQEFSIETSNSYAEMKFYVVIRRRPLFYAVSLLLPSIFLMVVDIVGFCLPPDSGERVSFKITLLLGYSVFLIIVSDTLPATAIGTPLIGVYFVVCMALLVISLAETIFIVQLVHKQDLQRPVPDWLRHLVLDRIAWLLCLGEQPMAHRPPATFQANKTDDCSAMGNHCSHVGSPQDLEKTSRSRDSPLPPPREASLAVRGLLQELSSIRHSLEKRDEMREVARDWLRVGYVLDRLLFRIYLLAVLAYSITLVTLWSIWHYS
Description: Inhibition of the Bezold-Jarisch reflex in the anaesthetized rat. As to conditions: iv, read-out: BEZOLD-JARISCH REFLEX IN THE RAT (ID50; μg/kg i.v.). Type of test: in vivo. The text has this: (1) Stimulation by 5-HT of 5HT3 receptors located in vagal afferent fibres produces a fall in heart rate and blood pressure in the anaesthetized rat (Bezold-Jarisch reflex).

Where a name gives a salt, the structure may show the parent alone.

For the compound `Nc1cc(OCC2CC2)c(C(=O)NC2CN3CCC2CC3)cc1Cl` (stereo not shown) [Compound 1, N-(1-azabicyclo[2.2.2]oct-3-yl)-2-cyclopropylmethoxy-4-amino-5-chlorobenzamide], the “APOMORPHINE-INDUCED VOMITING IN THE DOG % Protected animals” value in test [1] amounted to 0%. In addition, the “C4 SO4 - INDUCED VOMITING No EMETIC EPISODES IN THE DOG (% Inh.)” value with CuSO4-induced emesis came out at 40%. In addition, the “CISPLATIN-INDUCED VOMITING IN THE DOG (% inhibition)” value in test [2] (0.03 mg/kg i.v.) is 88%; in test [2] (0.1 mg/kg p.o.), 85%. The “GASTRIC EMPTYING IN THE RAT [drawing 8]” value was 55 with gastric emptying (0.01 mg/kg p.o.) and 85 in the test on gastric emptying (1.0 mg/kg p.o.). Further, the ED50 in test [3] was found to be 0.56 µg/kg.

Consider `COCCOc1cc(N)c(Cl)cc1C(=O)NC1CN2CCC1CC2` (stereo not shown) [Compound 11, N-(1-azabicyclo[2.2.2]oct-3-yl)-2-methoxyethoxy-4-amino-5-chlorobenzamide], for which the “APOMORPHINE-INDUCED VOMITING IN THE DOG % Protected animals” value in test [1] was found to be 0%. For the same compound, the “C4 SO4 - INDUCED VOMITING No EMETIC EPISODES IN THE DOG (% Inh.)” value with CuSO4-induced emesis stood at 24%. For the same compound, the “CISPLATIN-INDUCED VOMITING IN THE DOG (% inhibition)” value was 81% in test [2] (0.03 mg/kg i.v.) and 0% in test [2] (0.1 mg/kg p.o.). In addition, the “GASTRIC EMPTYING IN THE RAT [drawing 8]” value with gastric emptying (0.01 mg/kg p.o.) is recorded as 60; in the test with gastric emptying (1.0 mg/kg p.o.), 68. Also, the ED50 in test [3] was 0.42 µg/kg.

Turning to `CN1[C@@H]2CC[C@H]1C[C@H](NC(=O)c1cc(Cl)c(N)cc1OCC1CC1)C2` [Compound 16, N(8-methyl-8-azabicyclo[3.2.1]oct3β-yl)2-cyclopropylmethoxy-4-amino-5-chlorobenzamide], the “APOMORPHINE-INDUCED VOMITING IN THE DOG % Protected animals” value in test [1] is reported as 0%. In addition, the “C4 SO4 - INDUCED VOMITING No EMETIC EPISODES IN THE DOG (% Inh.)” value with CuSO4-induced emesis was determined as 45%. For the same compound, the “CISPLATIN-INDUCED VOMITING IN THE DOG (% inhibition)” value in test [2] (0.03 mg/kg i.v.) worked out at 53%; in test [2] (0.1 mg/kg p.o.) it was 61%. For the same compound, the figures for the “GASTRIC EMPTYING IN THE RAT [drawing 8]” value with gastric emptying (0.01 mg/kg p.o.) and in the test with gastric emptying (1.0 mg/kg p.o.) were 32 and 71, respectively. Also, the ED50 in test [3] stood at 2.6 µg/kg.

For the compound `COCCOc1cc(N)c(Cl)cc1C(=O)N[C@@H]1C[C@H]2CC[C@@H](C1)N2C` [Compound 23, N-(8-methyl-8-azabicyclo[3.2.1]oct-3β-yl)-2-(2-methoxyethoxy)-4-amino-5-chlorobenzamide acid fumarate], in test [1], the “APOMORPHINE-INDUCED VOMITING IN THE DOG % Protected animals” value amounted to 0%. In the test with CuSO4-induced emesis, the “C4 SO4 - INDUCED VOMITING No EMETIC EPISODES IN THE DOG (% Inh.)” value worked out at 30%. For the same compound, the “CISPLATIN-INDUCED VOMITING IN THE DOG (% inhibition)” value worked out at 31% in test [2] (0.03 mg/kg i.v.) and 53% in test [2] (0.1 mg/kg p.o.). Further, the “GASTRIC EMPTYING IN THE RAT [drawing 8]” value in the test with gastric emptying (0.01 mg/kg p.o.) worked out at 13; in the test on gastric emptying (1.0 mg/kg p.o.) it was 61. In test [3], the ED50 was determined as 0.63 µg/kg.

In the case of `CCN(CC)CCNC(=O)c1cc(Cl)c(N)cc1OC` [Metoclopramide, N-[2-(diethylamino)ethyl]-2-methoxy-4-amino-5-chlorobenzamide, reference compound], in test [1], the “antiemetic activity in apomorphine-induced vomiting in the dog (in words)” value was “very active” and the “APOMORPHINE-INDUCED VOMITING IN THE DOG % Protected animals” value came out at 100%. For the same compound, in the test on CuSO4-induced emesis, the “activity in CuSO4-induced vomiting in the dog (in words)” value was “decreases the number of emetic episodes” and the “C4 SO4 - INDUCED VOMITING No EMETIC EPISODES IN THE DOG (% Inh.)” value stood at 60%. Besides, the “CISPLATIN-INDUCED VOMITING IN THE DOG (% inhibition)” value in test [2] (1 mg/kg i.v.) was found to be 69%. Moreover, the “CISPLATIN-INDUCED VOMITING IN THE DOG (% inhibition)” value in test [2] (3 mg/kg p.o.) is on record as 85%. The “GASTRIC EMPTYING IN THE RAT [drawing 8]” value in the test on gastric emptying (0.01 mg/kg p.o.) came out at 0. Also, the “GASTRIC EMPTYING IN THE RAT [drawing 8]” value with gastric emptying (1.0 mg/kg p.o.) is 42. Besides, the ED50 in test [3] worked out at 330 µg/kg.

On to `COc1cc(N)c(Cl)cc1C(=O)NC1CN2CCC1CC2` (stereo not shown) [Zacopride, N-(1-azabicyclo[2.2.2]oct-3-yl)-2-methoxy-4-amino-5-chlorobenzamide, reference compound], for which, in test [1], the “antiemetic activity in apomorphine-induced vomiting in the dog (in words)” value is reported as “lack antiemetic activity” and the “APOMORPHINE-INDUCED VOMITING IN THE DOG % Protected animals” value is listed as 0%. For the same compound, in the test with CuSO4-induced emesis, the “activity in CuSO4-induced vomiting in the dog (in words)” value is “totally inactive” and the “C4 SO4 - INDUCED VOMITING No EMETIC EPISODES IN THE DOG (% Inh.)” value is on record as 0%. The “CISPLATIN-INDUCED VOMITING IN THE DOG (% inhibition)” value in test [2] (0.03 mg/kg i.v.) is reported as 92%. The “CISPLATIN-INDUCED VOMITING IN THE DOG (% inhibition)” value in test [2] (0.1 mg/kg p.o.) was found to be 88%. The “GASTRIC EMPTYING IN THE RAT [drawing 8]” value with gastric emptying (0.01 mg/kg p.o.) stood at 51. In the test on gastric emptying (1.0 mg/kg p.o.), the “GASTRIC EMPTYING IN THE RAT [drawing 8]” value is 77. In test [3], the ED50 was found to be 0.21 µg/kg.

The values are drawn from patent US4937236A, “Anxiolytic N-substituted benzamides” (priority 1987, dated 1990).
